Assay results: patent publication US12221422B2, “Compounds and their use for the treatment of alpha1-antitrypsin deficiency” (CENTESSA PHARMACEUTICALS (UK) LIMITED, priority 2018, dated 2025)

Legend:
CYP 1A2 = target: T1, CYP 1A2 (Homo sapiens, UniProt P05177); experiment: CYP inhibition, E. coli CYPEX membranes; type: in vitro ADME; conditions: specific probe substrates
T1 construct: purchased CYPEX; host or cells: E. coli
T1 sequence (P05177 1-516): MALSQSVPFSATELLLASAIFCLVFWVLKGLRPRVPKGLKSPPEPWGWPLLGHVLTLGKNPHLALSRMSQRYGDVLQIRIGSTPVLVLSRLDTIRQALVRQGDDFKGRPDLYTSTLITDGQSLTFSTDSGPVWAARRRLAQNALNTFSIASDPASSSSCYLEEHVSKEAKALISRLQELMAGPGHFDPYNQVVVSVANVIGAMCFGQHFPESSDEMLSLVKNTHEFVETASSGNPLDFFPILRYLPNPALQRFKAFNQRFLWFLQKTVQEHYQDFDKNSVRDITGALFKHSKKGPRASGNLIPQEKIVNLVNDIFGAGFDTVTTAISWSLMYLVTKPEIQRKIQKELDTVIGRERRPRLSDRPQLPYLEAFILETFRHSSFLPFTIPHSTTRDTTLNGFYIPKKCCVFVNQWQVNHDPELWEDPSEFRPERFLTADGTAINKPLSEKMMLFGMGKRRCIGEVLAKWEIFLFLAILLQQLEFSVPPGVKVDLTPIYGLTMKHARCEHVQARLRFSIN
Experimental: (§1) Using E. coli CYPEX membranes in combination with specific probe substrates, the inhibition of individual CYPs by compounds of the invention using the method described in Weaver et al., 2003, Drug Metab Dispos 31:7, 955-966 was assessed.

CYP 2C19 = target: T2, CYP 2C19 (Homo sapiens, UniProt P33261); experiment: CYP inhibition, E. coli CYPEX membranes; type: in vitro ADME; conditions: specific probe substrates
T2 construct: purchased CYPEX; host or cells: E. coli
Experimental: as §1

CYP 2C9 = target: T3, CYP 2C9 (Homo sapiens, UniProt P11712); experiment: CYP inhibition, E. coli CYPEX membranes; type: in vitro ADME; conditions: specific probe substrates
T3 construct: purchased CYPEX; host or cells: E. coli
Experimental: as §1

CYP 2D6 = target: T4, CYP 2D6 (Homo sapiens, UniProt P10635); experiment: CYP inhibition, E. coli CYPEX membranes; type: in vitro ADME; conditions: specific probe substrates
T4 construct: purchased CYPEX; host or cells: E. coli
Experimental: as §1

[1] = system: panel of enzymes, ion channels and receptors; experiment: DiscoverX Safety47 panel; conditions: at 10 μM
Experimental: Compounds of the invention were tested against the DiscoverX Safety47™ panel. […] No target was inhibited by more than 25% at this concentration.

Aqueous solubility = type: physicochemical; conditions: thermodynamic from solid; water, shaken for 5 minutes until clear solution
Experimental: Compounds of the invention were shaken for 5 minutes with increasing amounts of water until a clear solution had formed. Using this method the solubility of N,N-dimethyl-4-((6-oxopyrimidin-1(6H)-yl)methyl)benzamide was greater than 100 mg/ml.

TK6 cells = experiment: In vitro micronucleus assay; type: cell-based; parameters: relative increase in cell count (RICC): dose or concentration left out as unconfirmed; conditions: for relative increase in cell count (RICC): vs concurrent negative control
Description: The purpose of the in vitro micronucleus assay is to assess the ability of the test item to cause chromosome or spindle damage, or to interfere with the cell cycle, in ways which lead to the formation of micronuclei in the cytoplasm of TK6 cells. Chromosome defects are recognised as being the basis of a number of human genetic diseases. Micronuclei (MN) are the result of chromosome fragments or whole chromosomes remaining in the cytoplasm and not being incorporated into the nuclei of newly formed cells. These arise from damage to chromosomes leading to acentric fragments which cannot attach to the mitotic spindle; damage to the spindle apparatus preventing a chromosome from attaching to it or other interference with cell division. Assays were performed in the presence and absence of an exogenous mammalian oxidative metabolising system (S-9 mix, a liver post-mitochondrial fraction derived from the livers of Aroclor 1254 treated rats), to mimic mammalian metabolism. Cells were exposed to the test item for 3 hours and sampled 44 hours after the beginning of treatment. As a number of chemicals have been reported as only exerting positive effects following prolonged treatment, a continuous treatment of 27 hours in the absence of S-9 mix was also included. This was equivalent to 1.5 to 2.0 times the average generation time of cultured cells used in the assay. The test methodology was based on established procedures for in vitro micronucleus testing.
N,N-dimethyl-4-((6-oxopyrimidin-1(6H)-yl)methyl)benzamide was tested up to the regulatory maximum dose level of 1 mM […] in all treatments.

T2 sequence (P33261 whole entry): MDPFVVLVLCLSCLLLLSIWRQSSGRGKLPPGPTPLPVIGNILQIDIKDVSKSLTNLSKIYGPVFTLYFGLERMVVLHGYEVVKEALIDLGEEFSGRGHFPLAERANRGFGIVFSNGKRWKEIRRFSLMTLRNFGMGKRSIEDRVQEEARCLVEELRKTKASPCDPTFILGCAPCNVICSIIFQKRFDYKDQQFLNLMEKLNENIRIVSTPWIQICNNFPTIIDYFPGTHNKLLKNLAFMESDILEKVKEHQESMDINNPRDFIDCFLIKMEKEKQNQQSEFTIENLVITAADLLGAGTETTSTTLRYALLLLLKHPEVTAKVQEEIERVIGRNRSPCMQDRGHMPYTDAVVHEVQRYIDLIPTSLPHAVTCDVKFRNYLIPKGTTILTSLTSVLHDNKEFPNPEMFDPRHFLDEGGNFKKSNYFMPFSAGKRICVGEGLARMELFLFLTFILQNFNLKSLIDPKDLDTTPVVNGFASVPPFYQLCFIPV
T3 sequence (P11712 whole entry): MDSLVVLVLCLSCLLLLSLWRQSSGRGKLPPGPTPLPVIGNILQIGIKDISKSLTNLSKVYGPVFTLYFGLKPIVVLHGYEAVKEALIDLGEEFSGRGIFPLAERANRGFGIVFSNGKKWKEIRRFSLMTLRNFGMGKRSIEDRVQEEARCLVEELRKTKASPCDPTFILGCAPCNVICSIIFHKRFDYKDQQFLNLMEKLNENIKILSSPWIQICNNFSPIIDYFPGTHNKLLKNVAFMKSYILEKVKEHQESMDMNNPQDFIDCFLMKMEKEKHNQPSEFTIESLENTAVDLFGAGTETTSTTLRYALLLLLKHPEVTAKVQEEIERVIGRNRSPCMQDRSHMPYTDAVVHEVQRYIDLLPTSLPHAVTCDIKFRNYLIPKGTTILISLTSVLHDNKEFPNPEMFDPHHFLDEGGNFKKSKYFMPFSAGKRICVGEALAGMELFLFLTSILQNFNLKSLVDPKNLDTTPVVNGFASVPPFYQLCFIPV
T4 sequence (P10635 whole entry): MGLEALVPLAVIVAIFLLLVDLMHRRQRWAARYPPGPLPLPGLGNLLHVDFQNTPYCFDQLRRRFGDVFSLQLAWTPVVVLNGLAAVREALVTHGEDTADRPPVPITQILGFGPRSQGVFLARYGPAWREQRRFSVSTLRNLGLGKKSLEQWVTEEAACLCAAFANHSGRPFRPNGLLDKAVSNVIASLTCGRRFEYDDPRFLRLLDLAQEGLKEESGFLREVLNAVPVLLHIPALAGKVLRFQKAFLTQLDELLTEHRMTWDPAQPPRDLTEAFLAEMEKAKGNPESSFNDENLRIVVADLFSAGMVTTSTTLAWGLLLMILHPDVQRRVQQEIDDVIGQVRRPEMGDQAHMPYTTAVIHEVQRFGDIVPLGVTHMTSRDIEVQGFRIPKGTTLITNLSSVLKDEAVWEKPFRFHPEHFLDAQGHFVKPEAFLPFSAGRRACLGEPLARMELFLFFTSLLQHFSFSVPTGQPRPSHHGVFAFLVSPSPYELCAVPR

Question: What does the source list for `CN(C)C(=O)c1ccc(Cn2cnccc2=O)cc1` [N,N-dimethyl-4-((6-oxopyrimidin-1(6H)-yl)methyl)benzamide]?
Answer: IC50 (CYP 1A2): > 50 µM; IC50 (CYP 2C19): > 50 µM; IC50 (CYP 2C9): > 50 µM; IC50 (CYP 2D6): > 50 µM; inhibition of any target of the Safety47 panel [1]: ≤ 25%; solubility at 5 min (Aqueous solubility): > 100 mg/mL; relative increase in cell count (RICC) (TK6 cells; absence of S-9 mix, 3 hour treatment): 98%; relative increase in cell count (RICC) (TK6 cells; absence of S-9 mix, 27 hour treatment): 74%; relative increase in cell count (RICC) (TK6 cells; presence of S-9 mix, 3 hour treatment): 105%; clastogenicity / aneugenicity (TK6 cells; presence or absence of S 9 mix): neither clastogenic nor aneugenic; cytotoxicity (TK6 cells; up to 1 mM, 27 hour treatment only): only slight cytotoxicity; percentage MN (% MN) (TK6 cells; with S-9 mix 3 hour, without S-9 mix 3 hour or 27 hour): no statistically significant increases
